Test results as given in patent EP0084730A1, “Esters of penicillin derivatives with beta-lactamase inhibitors, their preparation and their use” (BEECHAM GROUP PLC, priority 1982, dated 1983).
Blank lines part the entries; values can stand above or below the molecule they belong to.

Tests used:
[1] = Blood levels of the clavulanate after oral dosing in mice, determined by β-lactamase inhibition assay; format: in vivo; conditions: mouse
Excerpt: These compounds were adminstered in 10% dimethylformamide/90% olive oil. […]
(§1) An antibacterial assay was used to determine levels of benzyl penicillin in blood samples. A P-lactamase inhibition assay was employed to determine levels of the clavulanate in the samples.

[2] = Blood levels of benzyl penicillin after oral dosing in mice, determined by antibacterial assay; conditions: mouse, in vivo, 60 mg/kg
Experimental: […] These compounds were adminstered in 10% dimethylformamide/90% olive oil. The dose was equivalent to approximately 62 mg/kg of benzyl penicillin and 38 mg/kg of the clavulanate.
as §1

concentration at 0.25 h ([1]; in vivo, 20 mg/kg): 7500 ng/mL | concentration at 0.5 h ([1]; in vivo, 20 mg/kg): 3850 ng/mL | concentration at 1 h ([1]; in vivo, 20 mg/kg): 1500 ng/mL | concentration at 2 h ([1]; in vivo, 20 mg/kg): 200 ng/mL | Blood levels of clavulanic acid methyl ether ([1]; in vivo, 20 mg/kg, 1.5 h): 450 ng/mL
Structure (SMILES): COC/C=C1\O[C@@H]2CC(=O)N2[C@H]1C(=O)O [Clavulanic acid methyl ether]

Structure (SMILES): CC1(C)S[C@@H]2[C@H](NC(=O)Cc3ccccc3)C(=O)N2[C@H]1C(=O)O [benzyl penicillin]
concentration at 0.25 h [2]: 1390 ng/mL | concentration at 0.5 h [2]: 1050 ng/mL | concentration at 0.75 h [2]: 1250 ng/mL | concentration at 1 h [2]: 620 ng/mL | concentration at 1.5 h [2]: 550 ng/mL | concentration at 2 h [2]: 320 ng/mL | Blood levels of benzyl penicillin ([2]; 0.25 h): 1390 ng/mL | Blood levels of benzyl penicillin ([2]; 0.5 h): 1050 ng/mL | Blood levels of benzyl penicillin ([2]; 0.75 h): 1250 ng/mL | Blood levels of benzyl penicillin ([2]; 1 h): 620 ng/mL | Blood levels of benzyl penicillin ([2]; 1.5 h): 550 ng/mL | Blood levels of benzyl penicillin ([2]; 2 h): 320 ng/mL

Structure (SMILES): O=C(O)[C@H]1/C(=C/CO)O[C@@H]2CC(=O)N21 [clavulanic acid]
concentration at 0.25 h ([1]; blood, mice, clavulanic acid alone at 20 mg/kg, 15' after administration, mean results from several experiments, read-out: Blood levels of clavulanic acid): 5900 ng/mL | concentration at 0.5 h ([1]; blood, mice, clavulanic acid alone at 20 mg/kg, 30' after administration, mean results from several experiments, read-out: Blood levels of clavulanic acid): 2300 ng/mL | concentration at 0.75 h ([1]; blood, mice, clavulanic acid alone at 20 mg/kg, 45' after administration, mean results from several experiments): 1040 ng/mL | concentration at 1 h ([1]; blood, mice, clavulanic acid alone at 20 mg/kg, 60' after administration, mean results from several experiments, read-out: Blood levels of clavulanic acid): 530 ng/mL | concentration at 1.5 h ([1]; blood, mice, clavulanic acid alone at 20 mg/kg, 90' after administration, mean results from several experiments): 340 ng/mL | concentration at 2 h ([1]; blood, mice, clavulanic acid alone at 20 mg/kg, 120' after administration, mean results from several experiments, read-out: Blood levels of clavulanic acid): ≤ 300 ng/mL
